“Also recorded” adds a separate entry of the source. Read-outs that look alike come from different tables or passages of the source.
Key:
[1] = Edema by carrageen (rat paw), antiedematous activity; assay type: in vivo, Rats of the Wistar-Roux-Ocefa stock
Procedure: A 1% physiological solution of carrageen was used. Rats of the Wistar-Roux-Ocefa stock having a weight of 150±30 g were used. The drugs were suspended in 1% carboxymethylcellulose or dissolved in distilled water and administered orally one hour before the inflammatory agent in a volume of 0.5 ml/100 g. The carrageen was adminstered subcutaneously in the subplanetary region of one of the rear paws. The volume of the paw was measured platysmagraphically initially and then after 1.5 hour, 3 hours and 5 hours after administering the carrageen. One inflammation unit was defined as the displacement of 0.01 ml of Hg.
The edema was evaluated as the difference in volume of the rear paw before and after the carrageen. The DE 50 was calculated by the probits method and graphically. The comparison drugs used were phenylbutazone and niflumic acid.

[2] = Pulminary edema by carrageen (Sancilio method, pleural exudate); assay type: in vivo, Wistar-Roux-Ocefa rats
Procedure: Using the Sancilio method (Sancilio F. L., J. Pharmacol. Exptl. Therap., 168, 199 (1969); Sancilio L. F. Rodrigues R., Proc. Soc. Exptl. Biol. Med., 123, 707 (1969); Sancilio L. F. Lawrence R., Proc. Soc. Exptl. Biol. Med., 127, 597 (1968), pulminary irritation was induced in Wistar-Roux-Ocefa rats and the capacity of chlorophenazole and other drugs to prevent production of pleural exudate was measured. 5 ml of a 0.025% carrageen solution and 0.075% Evans blue were injected into the pleurea.
The action of chlorophenazole, mepyrazole and phenylbutazone were evaluated from the quantity of exudate present in the pleural cavity after 1 and 6 hours.

[3] = Antipyretic activity, hyperthermia by lysate of Neisseria perflava in rabbit; assay type: in vivo, male albino rabbits; details: oral
Procedure: This was first studied in the rabbit, using 6 male albino rabbits of 3-3.5 kg per group, made hyperthermal by i.v. injection of 0.5 ml/kg of a lysate of Neisseria perflava. The rectal temperature was determined by thermocouples every 60 minutes for 3 hours. The difference in temperature was calculated between maximum elevation and base temperature at each time. The drug was administered orally.

[4] = Anticonvulsive activity against cardiazole; assay type: in vivo, Rockland-Ocefa mice; details: for Protection from convulsivant cardiazole, first value: first of two values; for Protection from convulsivant cardiazole, second value: second of two values
Procedure: Rockland-Ocefa mice of both sexes weighing 22±3 g and fasting for 16 hours were used.

Acute toxicity, mouse = details: in vivo, read-out: DL50 and L.F.

With `Cc1[nH]cnc1-c1ccc(Cl)cc1` [Chlorophenazole, 4-(p-chlorophenyl)-5-methylimidazole] the “Δ Volume of the inflamed paw” value ([1]; 10 mg/kg oral, 1.5 hours) was 15 UPI, the “Δ Volume of the inflamed paw” value ([1]; 10 mg/kg oral, 3 hours) was 35 UPI and the “Δ Volume of the inflamed paw” value ([1]; 10 mg/kg oral, 5 hours) was 58 UPI. For the same compound, the “Δ Volume of the inflamed paw” value ([1]; 20 mg/kg oral, 1.5 hours) was 15 UPI, the “Δ Volume of the inflamed paw” value ([1]; 20 mg/kg oral, 3 hours) was 29 UPI and the “Δ Volume of the inflamed paw” value ([1]; 20 mg/kg oral, 5 hours) was 44 UPI. For the same compound, the “Δ Volume of the inflamed paw” value ([1]; 40 mg/kg oral, 1.5 hours) was 15 UPI, the “Δ Volume of the inflamed paw” value ([1]; 40 mg/kg oral, 3 hours) was 23 UPI and the “Δ Volume of the inflamed paw” value ([1]; 40 mg/kg oral, 5 hours) was 42 UPI. For the same compound, the “IT (DL50/DE50)” value ([1]; DL50/DE50, os) was 73.60, the ED50 ([1]; Rattus norvegicus, po, os, probits method and graphically, read-out: DE50 (the source's name)) was 7 mg/kg and the “antiedematous activity relative to comparison drugs” value ([1]; oral) was “more active than phenylbutazone; also recorded: only slightly more active than niflumic acid”. For the same compound, the “antiinflamatory analgesic activity, overall comparison” value ([1]; summary of the tests) was “decidedly better than phenylbutazone, niflumic acid, clonixine or mepyrazole”, the ml of exudate ([2]; 30 mg/Kg, pleural cavity) was 3.11 mL and the “activity on pleural exudate” value ([2]; exudate after 1 and 6 hours) was “significantly active”. The “protection from temperature increase” value [3] was “clearly protected the animals from temperature increase”, the “Protection from convulsivant cardiazole, first value” (“Protection … first value” below) ([4]; 50 mg/kg, 15') was 6.23 and the “Protection from convulsivant cardiazole, second value” (“Protection … second value” for short) ([4]; 50 mg/kg, 15') was 6.70. The “Protection … first value” ([4]; 50 mg/kg, 30') was 10.80, the “Protection … second value” ([4]; 50 mg/kg, 30') was 8.30 and the “Protection … first value” ([4]; 50 mg/kg, 90') was 8.10. The “Protection … second value” ([4]; 50 mg/kg, 90') was 7.0, the “Protection … first value” ([4]; 100 mg/kg, 15') was 9.90 and the “Protection … second value” ([4]; 100 mg/kg, 15') was 8.90. For the same compound, the “Protection … first value” ([4]; 100 mg/kg, 30') was 13.00, the “Protection … second value” ([4]; 100 mg/kg, 30') was 26.40 and the “Protection … first value” ([4]; 100 mg/kg, 90') was 28.70. The “Protection … second value” ([4]; 100 mg/kg, 90') was 20.00, the “Protection … second value” ([4]; 200 mg/kg, 15') was 9.2 and the “Protection … second value” ([4]; 200 mg/kg, 30') was 27.30. For the same compound, the “Protection … second value” ([4]; 200 mg/kg, 90') was 30.10, the “framework of convulsive death” value ([4]; cardiazole and strychnine) was “does not modify the framework of convulsive death” and the premortal period ([4]; cardiazole and strychnine) was “significant elongation of the premortal period”. The LD50 (Acute toxicity, mouse; ip) was 175 mg/kg and the LD50 (Acute toxicity, mouse; po, os) was 534 mg/kg.

Reference: US4499104A, “Imidazole compound, the process for its preparation, and therapeutically active compositions containing same” (priority 1976, dated 1985)
